# How the values were obtained:
# Experiment in all cases: Test J Compounds 2 and 6 alone and in combination with other herbicides, foliage spray
# Conditions in all cases: applied alone
# wild oat (AVEFA) = type: in vivo, Avena fatua; design: key: 0 = no effect, 100 = complete control
# Text: (§1) Colby's Equation was used to calculate the expected additive herbicidal effect of the mixtures of Compound 6 with Harmony® Extra (i.e. a 2:1 mixture by weight of thifensulfuron-methyl and tribenuron-methyl). Colby's Equation (Colby, S. R. “Calculating Synergistic and Antagonistic Responses of Herbicide Combinations,” Weeds, 15(1), pp 20-22 (1967)) calculates the expected additive effect of herbicidal mixtures, and for two active ingredients is of the form: Pa+b=Pa+Pb−(PaPb/100) wherein • Pa+b is the percentage effect of the mixture expected from additive contribution of the individual components, • Pa is the observed percentage effect of the first active ingredient at the same use rate as in the mixture, and • Pb is the observed percentage effect of the second active ingredient at the same use rate as in the mixture.
# (§2) Seeds of test plants consisting of barnyardgrass (ECHCG; Echinochloa crus-galli (L.) Beauv.), blackgrass (ALOMY; Alopecurus myosuroides Huds.), Surinam grass (BRADC; Urochloa decumbens (Staph) R. D. Webster, previously named Brachiaria decumbens Stapf), cocklebur (XANST, Xanthium strumarium L.), corn (ZEAMD, Zea mays L. cv. ‘Pioneer 33G26’), large crabgrass (DIGSA, Digitaria sanguinalis (L.) Scop.), giant foxtail (SETFA, Setaria faberi Herrm.), lambsquarters (CHEAL, Chenopodium album L.), morningglory (IPOCO, Ipomoea coccinea L.), pigweed (AMARE, Amaranthus retroflexus L.), velvetleaf (ABUTH, Abutilon theophrasti Medik.) wheat (TRZAS, Triticum aestivum L. cv. ‘Recital’) and wild oat (AVEFA, Avena fatua L.) were planted in Redi-Earth® planting medium (Scotts Company, 14111 Scottslawn Road, Marysville, Ohio 43041) comprising spaghnum peat moss and vermiculite. Seeds of small-seeded species were planted about 1 cm deep; larger seeds were planted about 2.5 cm deep. Plants were grown in a greenhouse using supplemental lighting to maintain a photoperiod of about 14 hours; daytime and nighttime temperatures were about 24-30° C. and 22-25° C., respectively. Balanced fertilizer was applied through the watering system. The plants were grown for 7 to 11 days so that at time of treatment the plants ranged in height from 2 to 18 cm (1- to 4-leaf stage). Treatments consisted of Compounds 2 and 6 (technical material), atrazine (90DF), terbacil (Sinbar® 80DF), hexazinone (Velpar® 75WG), diuron (Karmex® 80WP) and paraquat (Gramoxone® Extra, 37%) alone and in combination, suspended or dissolved in an aqueous solvent comprising a nonionic surfactant and applied as a foliage spray using a volume of 541 L/ha. Each treatment was triply replicated. […] Treated plants and controls were maintained in the greenhouse and watered as needed with care to not wet the foliage for the first 24 hours after treatment. The effects on the plants 15 days after treatment were visually compared to untreated controls. Plant response ratings, listed in Table J as the means of the thee replicates, are based on a scale of 0 to 100 where 0 is no effect and 100 is complete control. Also listed in Table J are the expected effects for the mixtures calculated using Colby's Equation.
# barnyardgrass (ECHCG) = type: in vivo, Echinochloa crus-galli; design: key: percentage herbicidal effect (observed)
# Text: as §1, §2
# pigweed (AMARE) = type: in vivo, Amaranthus retroflexus; design: key: 0 = no effect, 100 = complete control
# Text: as §1, §2
# velvetleaf (ABUTH) = type: in vivo, Abutilon theophrasti; design: key: 0 = no effect, 100 = complete control
# Text: as §1, §2
# morningglory (IPOCO) = type: in vivo, Ipomoea coccinea; design: key: 0 = no effect, 100 = complete control
# Text: as §2
# Surinam grass (BRADC) = type: in vivo, Urochloa decumbens; design: key: 0 = no effect, 100 = complete control
# Text: as §1, §2
# large crabgrass (DIGSA) = type: in vivo, Digitaria sanguinalis; design: key to DIGSA Obsd.: 0 = no effect, 100 = complete control
# Text: as §1, §2
# corn (ZEAMD) = type: in vivo, Zea mays; design: key: percentage herbicidal effect (observed)
# Text: as §1, §2
# cocklebur (XANST) = type: in vivo, Xanthium strumarium; design: key: 0 = no effect, 100 = complete control
# Text: as §2
# wheat (TRZAS) = type: in vivo, Triticum aestivum; design: key: 0 = no effect, 100 = complete control
# Text: as §1, §2
# blackgrass (ALOMY) = type: in vivo, Alopecurus myosuroides; design: key: 0 = no effect, 100 = complete control
# Text: as §1, §2
# giant foxtail (SETFA) = type: in vivo, Setaria faberi; design: key: 0 = no effect, 100 = complete control
# Text: as §2
# lambsquarters (CHEAL) = type: in vivo, Chenopodium album; design: key: % herbicidal effect (observed)
# Text: as §1, §2
structure (smiles),measurement,setting,value
CN(C)c1nc(=O)n(C2CCCCC2)c(=O)n1C [hexazinone],AVEFA Obsd.,wild oat (AVEFA); 100 g a.i./ha,53
same,AVEFA Obsd.,wild oat (AVEFA); 200 g a.i./ha,62
same,ECHCG Obsd.,barnyardgrass (ECHCG); 100 g a.i./ha,15
same,ECHCG Obsd.,barnyardgrass (ECHCG); 200 g a.i./ha,53
same,AMARE Obsd.,pigweed (AMARE); 100 g a.i./ha,88
same,AMARE Obsd.,pigweed (AMARE); 200 g a.i./ha,80
same,ABUTH Obsd.,velvetleaf (ABUTH); 100 g a.i./ha,82
same,ABUTH Obsd.,velvetleaf (ABUTH); 200 g a.i./ha,77
same,IPOCO Obsd.,morningglory (IPOCO); 100 g a.i./ha,92
same,IPOCO Obsd.,morningglory (IPOCO); 200 g a.i./ha,100
same,BRADC Obsd.,Surinam grass (BRADC); 100 g a.i./ha,62
same,BRADC Obsd.,Surinam grass (BRADC); 200 g a.i./ha,70
same,DIGSA Obsd.,large crabgrass (DIGSA); 100 g a.i./ha,38
same,DIGSA Obsd.,large crabgrass (DIGSA); 200 g a.i./ha,53
same,ZEAMD Obsd.,corn (ZEAMD); 100 g a.i./ha,45
same,ZEAMD Obsd.,corn (ZEAMD); 200 g a.i./ha,53
same,XANST Obsd.,cocklebur (XANST); 100 g a.i./ha,100
same,XANST Obsd.,cocklebur (XANST); 200 g a.i./ha,100
same,TRZAS Obsd.,wheat (TRZAS); 100 g a.i./ha,35
same,TRZAS Obsd.,wheat (TRZAS); 200 g a.i./ha,60
same,ALOMY Obsd.,blackgrass (ALOMY); 100 g a.i./ha,40
same,ALOMY Obsd.,blackgrass (ALOMY); 200 g a.i./ha,78
same,SETFA Obsd.,giant foxtail (SETFA); 100 g a.i./ha,28
same,SETFA Obsd.,giant foxtail (SETFA); 200 g a.i./ha,45
same,CHEAL Obsd.,lambsquarters (CHEAL); 100 g a.i./ha,78
same,CHEAL Obsd.,lambsquarters (CHEAL); 200 g a.i./ha,87
C[n+]1ccc(-c2cc[n+](C)cc2)cc1 [paraquat],AVEFA Obsd.,wild oat (AVEFA); 31 g a.i./ha,42
same,AVEFA Obsd.,wild oat (AVEFA); 62 g a.i./ha,63
same,ECHCG Obsd.,barnyardgrass (ECHCG); 31 g a.i./ha,45
same,ECHCG Obsd.,barnyardgrass (ECHCG); 62 g a.i./ha,77
same,AMARE Obsd.,pigweed (AMARE); 31 g a.i./ha,90
same,AMARE Obsd.,pigweed (AMARE); 62 g a.i./ha,100
same,ABUTH Obsd.,velvetleaf (ABUTH); 31 g a.i./ha,70
same,ABUTH Obsd.,velvetleaf (ABUTH); 62 g a.i./ha,92
same,IPOCO Obsd.,morningglory (IPOCO); 31 g a.i./ha,58
same,IPOCO Obsd.,morningglory (IPOCO); 62 g a.i./ha,90
same,BRADC Obsd.,Surinam grass (BRADC); 31 g a.i./ha,67
same,BRADC Obsd.,Surinam grass (BRADC); 62 g a.i./ha,95
same,DIGSA Obsd.,large crabgrass (DIGSA); 31 g a.i./ha,78
same,DIGSA Obsd.,large crabgrass (DIGSA); 62 g a.i./ha,85
same,ZEAMD Obsd.,corn (ZEAMD); 31 g a.i./ha,43
same,ZEAMD Obsd.,corn (ZEAMD); 62 g a.i./ha,63
same,XANST Obsd.,cocklebur (XANST); 31 g a.i./ha,100
same,XANST Obsd.,cocklebur (XANST); 62 g a.i./ha,87
same,TRZAS Obsd.,wheat (TRZAS); 31 g a.i./ha,35
same,TRZAS Obsd.,wheat (TRZAS); 62 g a.i./ha,83
same,ALOMY Obsd.,blackgrass (ALOMY); 31 g a.i./ha,60
same,ALOMY Obsd.,blackgrass (ALOMY); 62 g a.i./ha,73
same,SETFA Obsd.,giant foxtail (SETFA); 31 g a.i./ha,72
same,SETFA Obsd.,giant foxtail (SETFA); 62 g a.i./ha,88
same,CHEAL Obsd.,lambsquarters (CHEAL); 31 g a.i./ha,95
same,CHEAL Obsd.,lambsquarters (CHEAL); 62 g a.i./ha,100
Cc1[nH]c(=O)n(C(C)(C)C)c(=O)c1Cl [terbacil],AVEFA Obsd.,wild oat (AVEFA); 250 g a.i./ha,68
same,AVEFA Obsd.,wild oat (AVEFA); 500 g a.i./ha,97
same,ECHCG Obsd.,barnyardgrass (ECHCG); 250 g a.i./ha,15
same,ECHCG Obsd.,barnyardgrass (ECHCG); 500 g a.i./ha,63
same,AMARE Obsd.,pigweed (AMARE); 250 g a.i./ha,63
same,AMARE Obsd.,pigweed (AMARE); 500 g a.i./ha,97
same,ABUTH Obsd.,velvetleaf (ABUTH); 250 g a.i./ha,92
same,ABUTH Obsd.,velvetleaf (ABUTH); 500 g a.i./ha,100
same,IPOCO Obsd.,morningglory (IPOCO); 250 g a.i./ha,78
same,IPOCO Obsd.,morningglory (IPOCO); 500 g a.i./ha,100
same,BRADC Obsd.,Surinam grass (BRADC); 250 g a.i./ha,75
same,BRADC Obsd.,Surinam grass (BRADC); 500 g a.i./ha,73
same,DIGSA Obsd.,large crabgrass (DIGSA); 250 g a.i./ha,45
same,DIGSA Obsd.,large crabgrass (DIGSA); 500 g a.i./ha,48
same,ZEAMD Obsd.,corn (ZEAMD); 250 g a.i./ha,30
same,ZEAMD Obsd.,corn (ZEAMD); 500 g a.i./ha,75
same,XANST Obsd.,cocklebur (XANST); 250 g a.i./ha,68
same,XANST Obsd.,cocklebur (XANST); 500 g a.i./ha,97
same,TRZAS Obsd.,wheat (TRZAS); 250 g a.i./ha,55
same,TRZAS Obsd.,wheat (TRZAS); 500 g a.i./ha,90
same,ALOMY Obsd.,blackgrass (ALOMY); 250 g a.i./ha,62
same,ALOMY Obsd.,blackgrass (ALOMY); 500 g a.i./ha,97
same,SETFA Obsd.,giant foxtail (SETFA); 250 g a.i./ha,18
same,SETFA Obsd.,giant foxtail (SETFA); 500 g a.i./ha,55
same,CHEAL Obsd.,lambsquarters (CHEAL); 250 g a.i./ha,93
same,CHEAL Obsd.,lambsquarters (CHEAL); 500 g a.i./ha,100

# From patent US20060069132A1, “Azolecarboxamide herbicides” (priority 2004, published 2006)
